Measurements taken from article PMC12000511, “Molecular basis for the assembly of the Vps5-Vps17 SNX-BAR proteins with Retromer” (Nature Communications, 2025).
Where no end group is shown, it is not given here.

Tests used:
ctRetromer = ctRetromer (Thermochaetoides thermophila, UniProt G0RZB5+G0S709); assay: ITC, binding to ctRetromer; parameters: species or system Chaetomium thermophilum; conditions: ITC 25 °C, pH 7.5, 200 mM NaCl
Procedure: (§1) All the bacterial constructs were expressed in BL21(DE3) competent cells using standard isopropyl 1-thio-β-D-galactopyranoside induction or autoinduction method as described previously[39],[72],[73]. To obtain the Retromer trimer complex, the GST-tagged Vps29 and Vps35 co-expressed cell pellet were mixed with His-Vps26 and resuspended in lysis buffer containing 50 mM Tris-HCl pH 7.5, 200 mM NaCl, 5% glycerol, 50 μg/ml benzamidine and DNase I before passed through a Constant System TS-Series cell disruptor. […] For all constructs, the lysate was clarified by centrifugation and the supernatant was loaded onto either Talon® resin (Clonetech) or glutathione sepharose (GE healthcare) for initial purification. To obtain the correct stoichiometry ratio of the Retromer complex, both Talon® resin and glutathione sepharose (GE healthcare) were applied. […] The flow-through containing complex was further purified using size-exclusion chromatography (SEC) equilibrated with a buffer containing 50 mM Tris-HCl pH 7.5, 200 mM NaCl, 2 mM β-ME. […] To avoid the non-specific cleavage by the residual proteases such as thrombin, a tablet of protease inhibitor cocktail was added into the complex mixture. To remove the unbound fractions, the complex mixture was further purified using Superose 6 increase 10/300 GL column using the SEC buffer described above.
In brief, the clarified lysate was loaded onto glutathione sepharose (GE healthcare) and eluted using elution buffer containing 50 mM Tris-HCl pH 7.5, 200 mM NaCl, 5% glycerol, 20 mM glutathione reduced and 50 μg/ml benzamidine. The flow-through was further purified using SEC as the final purification step. To avoid the degradation, the constructs containing N-terminal disordered parts of Vps5 and Vps17 were used in fresh and experiments were finished within 3 days after purification.
(§2) All the proteins used for ITC experiments were prepared in buffer containing 50 mM Tris-HCl pH 7.5, 200 mM NaCl, 2 mM β-ME. […] In all cases, the ITC titration sequence consisted of an initial 0.4 μl (not used in data processing) followed by 12 serial injections of 3.22 μl each with 180 s intervals. The resulting titration data were integrated with Malvern software package by fitting and normalized data to a single-site binding model, yielding the thermodynamic parameters Kd, ∆H, ∆G and −T∆S for all binding experiments. The stoichiometry was refined initially, and if the value was close to 1, then N was set to exactly 1.0 for calculation. Data presented are the mean of triplicate titrations for each experiment.

mVps29 [1] = target: T1, mVps29 (Mus musculus, UniProt Q9QZ88); assay: ITC, binding to mVps29; conditions: ITC 25 °C, pH 7.5; mean of triplicate titrations
T1 construct: GST (thrombin site) (N, cleaved yes); made in house; host or cells: E. coli BL21(DE3)
Procedure: as §1, §2

mVps29 [2] = target: T1, mVps29; assay: Crystal structure of mVPS29–ctVps5_71–80 peptide complex; conditions: 1.7 Å, two molecules in asymmetric unit
Procedure: All crystals were grown by the hanging-drop vapor diffusion method at 20 °C. […] Best quality crystals were obtained by mixing 1 µL of protein with 1 µL of well solution containing 40 mM KH2PO4, 16% PEG8000 and 5% glycerol at room temperature. Crystals grew after 13 days were cryoprotected in reservoir solution with additional 16% glycerol. X-ray diffraction data were carried out at the Australian Synchrotron MX2 beamline at 100 K.
Data collected from the Australian Synchrotron were indexed and integrated by AutoXDS and scaled using Aimless (version 0.7.4)[75]. Both structures were solved by molecular replacement using Phaser (version 2.5.6)[76] with native mVps29 structure as the initial model template. Both structures contain two copies of mVps29 in asymmetric unit with the electron density of peptide clearly visible. The refinement was performed using Phenix (version 1.19.2) with inspection of resulting model in Coot (version 0.8.9.2) guided by Fo–Fc difference maps[77]. Molprobity was used to evaluate the quality geometry of the refined structure. Molecular figures were generated using PyMOL (version 2.5.5) and structural comparison was performed using DALI and Foldseek[79],[80]. Sequence conservation was mapped on the structure with ConSurf server.

Sequence of ctRetromer (G0RZB5 entry or part of it): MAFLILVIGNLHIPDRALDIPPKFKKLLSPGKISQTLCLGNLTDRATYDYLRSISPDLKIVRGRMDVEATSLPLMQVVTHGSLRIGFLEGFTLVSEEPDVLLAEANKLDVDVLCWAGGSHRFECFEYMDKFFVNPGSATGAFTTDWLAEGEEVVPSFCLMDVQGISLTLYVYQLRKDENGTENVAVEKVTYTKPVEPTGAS
Sequence of ctRetromer (G0S709 entry or part of it): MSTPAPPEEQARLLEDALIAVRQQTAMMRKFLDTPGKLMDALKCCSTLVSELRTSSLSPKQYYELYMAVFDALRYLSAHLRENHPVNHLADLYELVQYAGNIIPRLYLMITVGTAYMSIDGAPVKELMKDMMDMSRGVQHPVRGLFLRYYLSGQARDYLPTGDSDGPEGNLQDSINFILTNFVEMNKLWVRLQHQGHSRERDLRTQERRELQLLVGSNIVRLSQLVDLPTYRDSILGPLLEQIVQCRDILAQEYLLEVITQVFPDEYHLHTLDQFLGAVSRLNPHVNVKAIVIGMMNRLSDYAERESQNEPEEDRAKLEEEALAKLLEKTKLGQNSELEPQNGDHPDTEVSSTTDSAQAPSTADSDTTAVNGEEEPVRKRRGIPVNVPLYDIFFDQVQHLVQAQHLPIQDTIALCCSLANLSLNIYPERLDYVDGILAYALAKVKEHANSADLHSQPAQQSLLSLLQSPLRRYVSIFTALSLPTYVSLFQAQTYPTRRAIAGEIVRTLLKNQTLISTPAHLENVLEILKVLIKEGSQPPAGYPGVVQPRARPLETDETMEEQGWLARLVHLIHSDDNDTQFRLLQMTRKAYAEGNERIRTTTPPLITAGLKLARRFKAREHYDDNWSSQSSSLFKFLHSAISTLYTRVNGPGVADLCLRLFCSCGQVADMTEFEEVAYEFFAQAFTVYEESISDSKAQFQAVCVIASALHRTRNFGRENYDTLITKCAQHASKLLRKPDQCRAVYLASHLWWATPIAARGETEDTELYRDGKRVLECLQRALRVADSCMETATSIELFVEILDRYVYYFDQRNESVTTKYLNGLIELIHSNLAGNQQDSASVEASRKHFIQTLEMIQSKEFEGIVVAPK
Sequence of ctRetromer (G0S0E6 entry or part of it, further chain): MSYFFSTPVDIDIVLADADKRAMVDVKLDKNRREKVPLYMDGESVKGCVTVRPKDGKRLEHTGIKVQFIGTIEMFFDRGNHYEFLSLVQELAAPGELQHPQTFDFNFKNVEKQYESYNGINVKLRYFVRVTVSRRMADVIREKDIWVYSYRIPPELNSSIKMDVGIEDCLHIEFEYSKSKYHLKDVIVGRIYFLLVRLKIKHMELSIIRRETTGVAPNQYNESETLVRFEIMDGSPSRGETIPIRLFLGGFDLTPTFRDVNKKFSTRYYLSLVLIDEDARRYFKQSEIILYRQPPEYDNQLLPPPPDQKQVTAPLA

DDPLGPLGA [ctVps5_71–80 peptide]
binding to ctRetromer (ctRetromer): very weak binding
ΔG (mVps29 [1]): -5.80 ± 0.10 kcal/mol
ΔH (mVps29 [1]): -8.00 ± 1.10 kcal/mol
binding site on VPS29 (mVps29 [2]): binds to the conserved hydrophobic groove of VPS29
